According to PubChem BioAssay AID1963967 (Molecular Pharmacology Branch, DTP, NCI, 2024):
Where “and” joins values, the source holds several entries; their conditions need not be identical. Equal entries are not always repeated.

Tested on: 855422-203-R-J1-PDC spheroids with HUVEC/MSC, viability
Test: Anticancer human tumor 855422-203-R-J1-PDC patient-derived bladder carcinoma cell line growth inhibition [PI3K]
Settings: for viability, T/C: stronger effect = lower value
Description: Combinatorial screen of targeted agents with the PI3K inhibitors inavolisib, alpelisib, duvelisib, and copanlisib in multi-cell type tumor spheroids
A high-throughput screen of multi-cell type tumor spheroids was designed to identify active combinations of targeted small molecules and PI3K pathway inhibitors. Complex spheroids include a stromal component modeled by human endothelial cells (HUVEC) and fibroblasts modeled by human mesenchymal stem cells (MSCs). The concentration ranges selected for each drug and investigational agent were based upon clinically achievable concentrations if the clinical Cmax of the agent was known.
Compounds. The drugs and investigational agents: inavolisib (NSC800729), alpelisib (NSC765974), duvelisib (NSC772469), copanlisib (NSC816437), ipatasertib (NSC767898), afuresertib (NSC778305), talazoparib (NSC767125), sapanisertib (NSC764658), selumetinib (NSC741078), tovorafenib (DAY101, NSC766906), vemurafenib (NSC761431), ravoxertinib (NSC781343), sotorasib (NSC818433), MRTX1133 (NSC 836407), abemaciclib (NSC 768073), palbociclib (NSC758247), venetoclax (NSC 766270), SY5609 (NSC837396), enzalutamide (NSC755605), and darolutamide (NSC825331), were obtained from the National Cancer Institute (NCI) Developmental Therapeutics Program Chemical Repository. The FDA-approved anticancer drug set is available from the NCI Developmental Therapeutics Program. […] The stock solutions were prepared in dimethyl sulfoxide (DMSO, Sigma-Aldrich, St. Louis, MO, cat. D2650) at 800-fold the tested concentration and stored at -70 degrees C prior to their use. All drugs and investigational agents were tested over a range starting from a high concentration at or near the clinical Cmax and decreasing in half-log increments. If the clinical Cmax for an agent had not been determined, the highest concentration tested was 10 microM.
Cell Culture. All cells were maintained in an incubator at 37 degrees C and 5% CO2 with 95% humidity. The PDC lines were cultured according to standard operating procedures established by the NCI PDMR (https://pdmr.cancer.gov/sops/default.htm). All PDCs were thawed and cultured in Matrigel-coated flasks prepared with a working solution of 1X Ham's F-12 nutrient mix, without supplementation (Invitrogen, Waltham, MA, cat. 11765054), 100 U/mL penicillin-streptomycin (Invitrogen, cat. 15140122), and 2.5% Matrigel (Corning Inc., Corning, NY, cat. 354248) for the first three passages. The 354836-022-R-J1-PDC, 475296-252-R-J1-PDC, and 997726-040-R-J2-PDC lines were cultured in 6A media, which includes advanced DMEM/F-12 (Thermo Fisher Scientific, cat. 12634028), 10 mM HEPES (Thermo Fisher Scientific, cat. 15630080), 1X GlutaMAX supplement (Thermo Fisher Scientific, cat. 35050061), 0.1 mg/mL primocin (InvivoGen, San Diego, CA, cat. ant-pm-2), 10% defined fetal bovine serum, heat inactivated (HyClone Laboratories Inc., Logan, UT, cat. SH30070.03HI), 50% L-WRN conditioned media (ATCC, cat. CRL-3276), 1.25 mM N-Acetyl-L-cysteine (Sigma-Aldrich, cat. A9165), 10 mM nicotinamide (Sigma-Aldrich, cat. N0636), 1X B-27 supplement (Thermo Fisher Scientific, cat. 17504044), 1X N-2 supplement (Thermo Fisher Scientific, cat. 17502048), and 10 microM Y-27632 dihydrochloride (Tocris Bioscience, Bristol, United Kingdom, cat. 1254). The 624824-186-R-J2-PDC line was cultured in 6C/Colon 1B media, which includes all 6A media components plus 50 ng/mL human EGF recombinant protein (Thermo Fisher Scientific, cat. PHG0311). […]

[1] = curve of first compound, second compound 0.0316 µM
[2] = curve of first compound, second compound 0.1 µM
[3] = curve of first compound, second compound 0.316 µM
[4] = curve of first compound, second compound 1 µM
[5] = curve of first compound, second compound 3.16 µM
[6] = curve of first compound, second compound 10 µM
[7] = second compound 0.0316 µM, first compound 0.0316 µM
[8] = second compound 0.0316 µM, first compound 0.1 µM
[9] = second compound 0.0316 µM, first compound 0.316 µM
[10] = second compound 0.0316 µM, first compound 1 µM
[11] = second compound 0.1 µM, first compound 0.0316 µM
[12] = second compound 0.1 µM, first compound 0.1 µM
[13] = second compound 0.1 µM, first compound 0.316 µM
[14] = second compound 0.1 µM, first compound 1 µM
[15] = second compound 0.316 µM, first compound 0.0316 µM
[16] = second compound 0.316 µM, first compound 0.1 µM
[17] = second compound 0.316 µM, first compound 0.316 µM
[18] = second compound 0.316 µM, first compound 1 µM
[19] = second compound 1 µM, first compound 0.0316 µM
[20] = second compound 1 µM, first compound 0.1 µM
[21] = second compound 1 µM, first compound 0.316 µM
[22] = second compound 1 µM, first compound 1 µM
[23] = second compound 3.16 µM, first compound 0.0316 µM
[24] = second compound 3.16 µM, first compound 0.1 µM
[25] = second compound 3.16 µM, first compound 0.316 µM
[26] = second compound 3.16 µM, first compound 1 µM
[27] = second compound 10 µM, first compound 0.0316 µM
[28] = second compound 10 µM, first compound 0.1 µM
[29] = second compound 10 µM, first compound 0.316 µM
[30] = second compound 10 µM, first compound 1 µM
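Further: agents incubated with spheroids for one week before read-out.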
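Wherever viability, T/C is given: 100% = DMSO vehicle-treated control wells.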

With CCN1CCN(Cc2ccc(Nc3ncc(F)c(-c4cc(F)c5nc(C)n(C(C)C)c5c4)n3)nc2)CC1 + CC(Nc1ncnc2nc[nH]c12)c1cc2cccc(Cl)c2c(=O)n1-c1ccccc1 the IC50 [1] was > 1000 nM, the IC50 [2] was > 1000 nM and the IC50 [3] was > 1000 nM. The IC50 [4] was 885 nM, the IC50 [5] was 497 nM and the IC50 [6] was 63 nM. For the same compound, the viability, T/C (second compound 0.0316 µM, first compound 0.00316 µM) was 113%, the viability, T/C (second compound 0.0316 µM, first compound 0.01 µM) was 93.7% and the viability, T/C [7] was 108%. For the same compound, the viability, T/C [8] was 88.6%, the viability, T/C [9] was 76.5% and the viability, T/C [10] was 62.2%. The viability, T/C (second compound 0.1 µM, first compound 0.00316 µM) was 108%, the viability, T/C (second compound 0.1 µM, first compound 0.01 µM) was 97.8% and the viability, T/C [11] was 108%. For the same compound, the viability, T/C [12] was 86.5%, the viability, T/C [13] was 83.1% and the viability, T/C [14] was 62%. For the same compound, the viability, T/C (second compound 0.316 µM, first compound 0.00316 µM) was 95.2%, the viability, T/C (second compound 0.316 µM, first compound 0.01 µM) was 112% and the viability, T/C [15] was 109%. For the same compound, the viability, T/C [16] was 94.4%, the viability, T/C [17] was 68.2% and the viability, T/C [18] was 53.7%. The viability, T/C (second compound 1 µM, first compound 0.00316 µM) was 97.5%, the viability, T/C (second compound 1 µM, first compound 0.01 µM) was 104% and the viability, T/C [19] was 105%. It also gave a viability, T/C [20] of 83.1%, a viability, T/C [21] of 69% and a viability, T/C [22] of 47.3%. The viability, T/C (second compound 3.16 µM, first compound 0.00316 µM) was 98.2%, the viability, T/C (second compound 3.16 µM, first compound 0.01 µM) was 96.6% and the viability, T/C [23] was 89.8%. It also gave a viability, T/C [24] of 75.7%, a viability, T/C [25] of 51.5% and a viability, T/C [26] of 46.2%. The viability, T/C (second compound 10 µM, first compound 0.00316 µM) was 81.9%, the viability, T/C (second compound 10 µM, first compound 0.01 µM) was 83.2% and the viability, T/C [27] was 55.2%. For the same compound, the viability, T/C [28] was 44.9%, the viability, T/C [29] was 34.9% and the viability, T/C [30] was 25.9%.

Cn1ncnc1[C@H]1c2n[nH]c(=O)c3cc(F)cc(c23)N[C@@H]1c1ccc(F)cc1 was tested, and the viability, T/C (compound 0.000316 µM) was 113% [middle of 4 runs], the viability, T/C (compound 0.001 µM) was 107% [middle of 4 runs] and the viability, T/C (compound 0.00316 µM) was 104% (2×) and 108% and 109%. For the same compound, the viability, T/C (compound 0.01 µM) was 101% [middle of 4 runs], the viability, T/C (compound 0.0316 µM) was 110% [middle of 4 runs] and the viability, T/C (compound 0.1 µM) was 107% and 100% (3×). The IC50 (curve of compound) was > 100 nM.

In the case of Cn1ncc(Cl)c1-c1cc(C(=O)NC(CN)Cc2cccc(F)c2)sc1Cl (stereo unspecified) + Cc1nc(NC(=O)N2CCCC2C(N)=O)sc1-c1ccnc(C(C)(C)C(F)(F)F)c1, the IC50 [1] is reported as 1020 nM, the IC50 [2] is reported as 1160 nM and the IC50 [3] is reported as 893 nM. For the same compound, the IC50 [4] was 637 nM, the IC50 [5] was < 31.6 nM and the IC50 [6] was < 31.6 nM. The viability, T/C [7] was 100%, the viability, T/C [8] was 78% and the viability, T/C [9] was 71%. The viability, T/C [10] was 50.1%, the viability, T/C (second compound 0.0316 µM, first compound 3.16 µM) was 32.6% and the viability, T/C (second compound 0.0316 µM, first compound 10 µM) was 9.93%. For the same compound, the viability, T/C [11] was 89.6%, the viability, T/C [12] was 77.6% and the viability, T/C [13] was 71.8%. It also gave a viability, T/C [14] of 50.9%, a viability, T/C (second compound 0.1 µM, first compound 3.16 µM) of 32.9% and a viability, T/C (second compound 0.1 µM, first compound 10 µM) of 9.68%. For the same compound, the viability, T/C [15] was 89.3%, the viability, T/C [16] was 74.6% and the viability, T/C [17] was 64.8%. It also gave a viability, T/C [18] of 52.4%, a viability, T/C (second compound 0.316 µM, first compound 3.16 µM) of 25.8% and a viability, T/C (second compound 0.316 µM, first compound 10 µM) of 7.56%. It also gave a viability, T/C [19] of 64.8%, a viability, T/C [20] of 65.3% and a viability, T/C [21] of 55.5%. The viability, T/C [22] was 46.5%, the viability, T/C (second compound 1 µM, first compound 3.16 µM) was 21.3% and the viability, T/C (second compound 1 µM, first compound 10 µM) was 3.26%. It also gave a viability, T/C [23] of 46.9%, a viability, T/C [24] of 43% and a viability, T/C [25] of 41.9%. For the same compound, the viability, T/C [26] was 31.4%, the viability, T/C (second compound 3.16 µM, first compound 3.16 µM) was 13.9% and the viability, T/C (second compound 3.16 µM, first compound 10 µM) was 2.81%. The viability, T/C [27] was 25.8%, the viability, T/C [28] was 23.4% and the viability, T/C [29] was 20.3%. It also gave a viability, T/C [30] of 16.3%, a viability, T/C (second compound 10 µM, first compound 3.16 µM) of 9.69% and a viability, T/C (second compound 10 µM, first compound 10 µM) of 0.43%.
